Tests used:
[1] = tested on: M17-SYNwt cells; assay: α-synuclein cytotoxicity assay (LDH leakage from paraquat-treated M17-SYNwt cells); assay type: cell-based, human; details: Table 2
Description: An α-synuclein expression plasmid was constructed by sub-cloning the NcoI/XhoI fragment from 212T-SYN(WT) (Griffioen et al., Biochem Biophys Acta (2006) 1762(3):312-318) containing the cDNA of human wild type α-synuclein correspondingly into a standard mammalian expression vector pcDNA3.1 resulting in plasmid pcDNA3.1-SYNwt. Plasmid pcDNA3.1 and pcDNA3.1-SYNwt were transfected to human neuroblastoma cells (ATCC No. CRL-2267) and independent clonal lines with the plasmids stably integrated into the genome were selected. […] Over-expression of α-synuclein in M17-SYNwt cell lines was confirmed by Western analysis.
(§1) Due to the high levels of α-synuclein M17-SYNwt cells are exquisitely sensitivity to paraquat, a well-known risk factor of synuclein-dependent neuronal degeneration. In degenerated or dead cells lactate dehydrogenase (LDH) is leaked out of the cells into the extracellular environment due to a loss of plasma-membrane integrity. This principle was used to determine cytotoxicity by quantifying the level of leaked LDH into the growth medium.
(§2) The detailed method for determining α-synuclein cytotoxicity was as follows: From appropriate precultures of M17 and M17-SYN cells were seeded at 50000 cells/cm^2 in Optimem Reduced Serum without phenol red (InVitrogen, Cat. 31985-047) supplemented with 5% fetal calf serum, 1 mM sodium pyruvate, 1×non-essential amino acids, 500 μg/ml G418 0.5×antibiotic/antimycotic. After 3 hours of incubation at 37° C./5% CO2 paraquat was added to the cells (final concentration of 32 mM), together with the test compound and the cells were further incubated for 40 hours. Subsequently, LDH activity was determined using Promega Cytotox 96 Non-Radioactive cytotoxicity assay, (Cat. G1780) according the supplier's instructions.
This α-synuclein expressing neuroblastoma cells made it possible to assess the ability of novel compounds to counteract α-synuclein cytotoxicity. […] Since this method monitors leaked LDH from degenerated or dead cells only non-toxic compounds will be identified as active inhibitors of α-synuclein-mediated cytotoxicity. Lack of toxicity is an important characteristic for compounds to be used as a medicament to patients in need. A compound was considered to be active in this test when it inhibits α-synuclein cytotoxicity by more than 25% relative to untreated M17-SYNwt cells at a concentration of 20 μg/mL or lower. In the experiments, the control group consisted of M17-SYNwt cells treated with DMSO, the untreated paraquat group consisted of M17-SYNwt cells treated with paraquat and DMSO, and the treated paraquat group consisted of M17-SYNwt cells treated with paraquat and the test compound dissolved in DMSO.
Percent inhibition was calculated as the synuclein toxicity inhibition by the compound in treated paraquat cells, relative to the synuclein cytotoxicity in untreated paraquat cells.
The compounds from table 1 were screened for activity using the α-synuclein cytotoxicity assay as described above. Dose responses were carried out on all compounds found to be active (10 point curves in duplicate).

[2] = tested on: M17-SYNwt cells; assay type: cell-based, human; details: M17-SYNwt cells treated with paraquat; not seen in M17 cells; FIG. 1
Description: as §1, §2

| SMILES | EC50 ([1]; Homo sapiens, M17-SYNwt cells, paraquat 32 mM, 40 hours, LDH activity) [nM] | % inh. (percentage inhibition) ([1]; inhibition of synuclein toxicity at most effective concentration relative to untreated paraquat cells) [%] | level of LDH leaked into the medium [2] |
| --- | --- | --- | --- |
| Cc1ccc(S(=O)(=O)N2CCN(c3nc(-c4cccs4)cs3)CC2)cc1 [Compound 78, 1-(4-(thiophen-2-yl)thiazol-2-yl)-4-tosylpiperazine] | 316 | 84 | – |
| C[n+]1ccc(-c2cc[n+](C)cc2)cc1 [paraquat] | – | – | relatively high level |

Source: patent US8722681B2, “N-sulfonyl thiazolylpiperazine derivatives and related N-sulfonyl heterocyclic derivatives for the treatment of neuro degenerative diseases” (NV reMYND, priority 2007, dated 2014)
